Values after ≈ are worked out from the molar mass of the structure shown. Read-outs that look alike come from different tables or passages of the source. Marks after values point to notes of the source that are not given here.
How the values were obtained:
[1] = Solubility in organic solvents; format: physicochemical; details: for solubility: organic solvent or mixture, thermodynamic from solid
Description: The solubility of DNQ derivatives in organic solvents was determined by measuring the amount of a given solvent required to dissolve a known amount of compound. Solvent was added to the compound in 50 μL aliquots and the slurry was sonicated. […] Solubility was assessed in DMSO, dichloromethane, and 33% methanol in dichloromethane (FIGS. 9, 10, and 11, respectively).

NQO1 = NQO1 (Homo sapiens, UniProt P15559); test: NQO1 enzymatic measurements in vitro; format: biochemical; details: 1 μM substrate
NQO1, sequence (P15559 whole entry): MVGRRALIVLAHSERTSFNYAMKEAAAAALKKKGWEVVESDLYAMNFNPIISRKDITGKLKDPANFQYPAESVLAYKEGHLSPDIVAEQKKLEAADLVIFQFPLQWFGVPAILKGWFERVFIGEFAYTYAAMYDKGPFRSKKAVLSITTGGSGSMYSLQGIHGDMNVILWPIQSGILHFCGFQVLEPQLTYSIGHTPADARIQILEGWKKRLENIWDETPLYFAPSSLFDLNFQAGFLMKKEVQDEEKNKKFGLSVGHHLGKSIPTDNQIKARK
Description: As further evidence that the activity of these DNQ derivatives is dependent on their ability to be reduced by NQO1, full enzymatic measurements in vitro were performed. We found a strong correlation between catalytic efficiency of substrates in vitro and their cell culture toxicity. […] This provides strong evidence that the cytotoxicity of DNQ and its derivatives are dependent primarily upon the activity of NQO1 within the cell.

[2] = Aqueous solubility in pH 7.4 PBS by LC-MS; format: physicochemical; details: phosphate buffered saline, pH 7.4, aqueous buffer, thermodynamic from solid, PBS pH 7.4; Table 4.3
Description: The aqueous solubility of DNQ at pH 7.4 in phosphate buffered saline (PBS) was measured by LC-MS. DNQ was sonicated for 30 minutes in PBS then undissolved solid was removed by filtration through a 0.45 μm syringe filter and the filtrate was analyzed by LC-MS (λ=275 nm, ESI-TOF in negative mode). The optimal sonication time was determined by sonicating DNQ for 1, 5, 10, and 30 minutes. While the concentration of DNQ in solution increased substantially between 1, 5, and 10 minutes, there was only a minor difference between 10 and 30 minutes. During the 30 minute sonication the water bath warmed to 45° C. (samples were cooled to room temperature before filtration). A calibration curve was generated from 1-100 μM by dissolving DNQ in methanol to a concentration of 500 μM and making dilutions of this stock in 80:20 water:methanol. The calibration curve (measure by UV absorbance) was linear over this range; 1 μM was approximately the limit of detection. […] The solution was very pale yellow.
The aqueous solubility of the compounds was determined by an LC-MS assay as described in the specification above. We applied the calibration curve generated for DNQ to the derivatives under the assumption that the UV profile of the derivatives of DNQ would be similar to that of DNQ.
After sonication and filtration most of the aqueous solutions were colorless. The solutions of DNQ, 4-31, and 4-37 were faintly yellow while 4-8, 4-14 and 4-41 were substantially more colored. The solution of 4-8, 4-14 and 4-41 were diluted 10-fold with PBS prior to LC-MS analysis to ensure that the concentrations fell within the range of the calibration curve.

MCF-7 cells = test: Cytotoxicity to MCF-7 cells with or without 25 μM dicoumarol (sulforhodamine B assay); format: cell-based, human
Description: The NQO1-dependent cytotoxicity of the first set of derivatives was determined in MCF-7 cells which express high levels of NQO1. Cells were exposed to DNQ for 2 hours in the presence or absence of 25 μM DIC. The media was then removed and cells were washed once with media then fresh media was added and the cells were incubated for 72 hours. Cell death was assessed using the sulforhodamine B assay previously described. […] Substitution off the nitrogen appeared well tolerated (4-14 and 4-15).
The DNQ derivatives synthesized were assayed for their toxicity to MCF-7 cells with or without DIC. The data from these experiments is organized in Table 4.2. […] This tolerance of sterically-demanding substituents corresponds with a flexible and promiscuous NQO1 active site. The poor activity of hydroxyl derivative 4-41 may be a result of either poor binding with the largely hydrophobic NQO1 active site or with an excessively strong substrate-enzyme interaction because of hydrogen bonding.

[3] = Solubility in organic solvents; format: physicochemical; details: organic solvent or mixture, thermodynamic from solid; THF; Table 1
[4] = 2:1 CH2Cl2:MeOH, Table 4.3, read-out: Solubility in 2:1 CH2Cl2:MeOH
[5] = CH2Cl2:MeOH 2:1, Table 1, read-out: CH2Cl2:MeOH 2:1 solubility
[6] = CH2Cl2, Table 1, read-out: CH2Cl2 solubility
[7] = DMSO, Table 1, read-out: DMSO solubility
[8] = Homo sapiens, MCF7, 2 h, Table 4.1, 2 h exposure, no DIC, ± s.e., read-out: IC50 vs. MCF-7 cells
[9] = Homo sapiens, MCF7, Table 1, read-out: MCF7 IC50
[10] = Homo sapiens, MCF7, classification in figure legends of FIGS. 7-11, read-out: IC50 ("active" / generally "inactive" compounds)
[11] = Homo sapiens, MCF7, read-out: IC50 vs. MCF-7 cells +25 μM DIC, Table 4.1, +25 μM DIC, ± s.e.
[12] = Homo sapiens, MCF7, Table 4.2, no DIC, ± s.e., read-out: IC50 vs. MCF-7 cells
[13] = Homo sapiens, MCF7, read-out: IC50 vs. MCF-7 cells +25 μM DIC, Table 4.2, +25 μM DIC, ± s.e.

Compound	Solubility in CH2Cl2 ([1]; CH2Cl2, Table 4.3) [mM]	Solubility in DMSO ([1]; DMSO, Table 4.3) [mM]	solubility [1, 4] [mM]	solubility [1, 5] [mM]	solubility [1, 6] [mM]	solubility [1, 7] [mM]	NQO1 Initial Velocity @ 1 μM (NQO1)	solubility at 30 min [2] [mM]	IC50 (MCF-7 cells; [9]) [µM]	IC50 (MCF-7 cells; [10]) [µM]	Fold Protection of MCF7 cells w/ 25 μM dicoumarol (MCF-7 cells; Table 1)	solubility [3] [mM]	IC50 (MCF-7 cells; [12]) [µM]	IC50 (MCF-7 cells; [13]) [µM]	Fold protection by DIC (MCF-7 cells; Table 4.2)	further results
Cc1cc(=O)[nH]c2c1C(=O)c1c(C)cc(=O)[nH]c1C2=O [Compound 2-78, reference compound]																solubility in solvents evaluated [1]: insoluble in all solvents evaluated except concentrated acids or bases
CCCc1cc(=O)n(C)c2c1C(=O)c1c(C)cc(=O)[nH]c1C2=O [Compound 4-9]	6.1 (≈ 1910 µg/mL)	10 (≈ 3120 µg/mL)	18 (≈ 5620 µg/mL)	18 (≈ 5620 µg/mL)	6.1 (≈ 1910 µg/mL)	10 (≈ 3120 µg/mL)	600 ± 100	0.059 (≈ 18.4 µg/mL)	0.93	> 0.5	2.8	4.6 (≈ 1440 µg/mL)				IC50 (MCF-7 cells; [8]): 0.9 ± 0.25 µM; IC50 (MCF-7 cells; [11]): 2.6 ± 0.6 µM; Fold protection by DIC (MCF-7 cells; Table 4.1): 2.8
CCc1cc(=O)[nH]c2c1C(=O)c1c(C)cc(=O)n(C)c1C2=O [Compound 4-11]	11 (≈ 3280 µg/mL)	16 (≈ 4770 µg/mL)	35 (≈ 10400 µg/mL)	35 (≈ 10400 µg/mL)	11 (≈ 3280 µg/mL)	16 (≈ 4770 µg/mL)		0.105 (≈ 31.3 µg/mL)		> 0.5		3.9 (≈ 1160 µg/mL)				IC50 (MCF-7 cells; [8]): 0.55 ± 0.06 µM; IC50 (MCF-7 cells; [11]): 4.9 ± 0.8 µM; Fold protection by DIC (MCF-7 cells; Table 4.1): 8.9
CCCc1cc(=O)[nH]c2c1C(=O)c1c(C)cc(=O)n(C)c1C2=O [Compound 4-12]	2.0 (≈ 625 µg/mL)	4.2 (≈ 1310 µg/mL)	10 (≈ 3120 µg/mL)	10 (≈ 3120 µg/mL)	2 (≈ 625 µg/mL)	4.2 (≈ 1310 µg/mL)	250*	0.035 (≈ 10.9 µg/mL)	3.4	> 0.5	1.6					IC50 (MCF-7 cells; [8]): 3.4 ± 0.6 µM; IC50 (MCF-7 cells; [11]): 5.3 ± 1.2 µM; Fold protection by DIC (MCF-7 cells; Table 4.1): 1.6
CCCCn1c2c(c(CCC)cc1=O)C(=O)c1c(C)cc(=O)[nH]c1C2=O [Compound 4-26]	24 (≈ 8510 µg/mL)	14 (≈ 4960 µg/mL)	75 (≈ 26600 µg/mL)	75 (≈ 26600 µg/mL)	24 (≈ 8510 µg/mL)	14 (≈ 4960 µg/mL)	1300 ± 200	< 0.005	0.77	> 0.5	2.8	17 (≈ 6020 µg/mL)	0.77 ± 0.19	2.2 ± 0.6	2.8	
CCCCn1c2c(c(C)cc1=O)C(=O)c1c(CCC)cc(=O)[nH]c1C2=O [Compound 4-27]	17 (≈ 6020 µg/mL)	10 (≈ 3540 µg/mL)	49 (≈ 17400 µg/mL)	49 (≈ 17400 µg/mL)	17 (≈ 6020 µg/mL)	10 (≈ 3540 µg/mL)	350 ± 10	< 0.005	6.3	> 0.5	1.1	12 (≈ 4250 µg/mL)	6.3 ± 1.1	6.8 ± 1.6	1.1	
CCCCn1c2c(c(CCC)cc1=O)C(=O)c1c(CCC)cc(=O)[nH]c1C2=O [Compound 4-28]	35 (≈ 13400 µg/mL)	7.1 (≈ 2720 µg/mL)	64 (≈ 24500 µg/mL)	64 (≈ 24500 µg/mL)	35 (≈ 13400 µg/mL)	7.1 (≈ 2720 µg/mL)	75 ± 4	< 0.005	36	> 0.5	0.9	17 (≈ 6500 µg/mL)	36 ± 11	31 ± 10	0.9	
CCc1cc(=O)[nH]c2c1C(=O)c1c(CC)cc(=O)n(C)c1C2=O [Compound 4-29]	10 (≈ 3120 µg/mL)	21 (≈ 6560 µg/mL)	46 (≈ 14400 µg/mL)	46 (≈ 14400 µg/mL)	10 (≈ 3120 µg/mL)	21 (≈ 6560 µg/mL)	250 ± 20	0.084 (≈ 26.2 µg/mL)	5	> 0.5	1.2	6.2 (≈ 1940 µg/mL)	3.8 ± 1.2	4.8 ± 1.1	1.3	
Cc1cc(=O)[nH]c2c1C(=O)c1c(C)cc(=O)n(C3CCCCCCC3)c1C2=O [Compound 4-39]			46 (≈ 17500 µg/mL)					0.024 (≈ 9.13 µg/mL)		> 0.5			0.83 ± 0.07	4.1 ± 0.8	3.8	solubility ([1]; CH2Cl2, Table 4.3, read-out: Solubility in CH2Cl2): 120 mM (≈ 45700 µg/mL); solubility ([1]; DMSO, Table 4.3, read-out: Solubility in DMSO): 71 mM (≈ 27000 µg/mL)
CO[C@@]12[C@H](COC(N)=O)C3=C(C(=O)C(C)=C(N)C3=O)N1C[C@@H]1N[C@@H]12 [MMC, mitomycin C, reference compound]											1					IC50 (MCF-7 cells; Table 1, read-out: MCF7 IC50): 14 µM
CC1=C(N2CC2)C(=O)C(CO)=C(N2CC2)C1=O [RH1, reference compound]											0.85					IC50 (MCF-7 cells; Table 1, read-out: MCF7 IC50): 0.21 µM
Cc1cc(=O)n(C)c2c1C(=O)c1c(C)cc(=O)n(C)c1C2=O [SCH, reference compound]				60 (≈ 17900 µg/mL)	25 (≈ 7460 µg/mL)	15 (≈ 4470 µg/mL)	32 ± 2		3.9		3.5	3.7 (≈ 1100 µg/mL)				

From patent US10285986B2, “Compounds and anti-tumor NQO1 substrates” (The Board of Trustees of the University of Illinois, priority 2011, dated 2019)
